The text below walks through data of patent US7671061B2, “Methods and compositions for treating pain” (Hydra Biosciences, Inc., priority 2005, dated 2010).

SMILES strings stand for the structures.

In one assay the target is T1, hTRPA1 (Homo sapiens, UniProt O75762, K186N).
T1 construct: expressed in transfected cells; host or cells: HEK293/TREx (Invitrogen), induced with tetracycline
T1 sequence (O75762 whole entry K186N): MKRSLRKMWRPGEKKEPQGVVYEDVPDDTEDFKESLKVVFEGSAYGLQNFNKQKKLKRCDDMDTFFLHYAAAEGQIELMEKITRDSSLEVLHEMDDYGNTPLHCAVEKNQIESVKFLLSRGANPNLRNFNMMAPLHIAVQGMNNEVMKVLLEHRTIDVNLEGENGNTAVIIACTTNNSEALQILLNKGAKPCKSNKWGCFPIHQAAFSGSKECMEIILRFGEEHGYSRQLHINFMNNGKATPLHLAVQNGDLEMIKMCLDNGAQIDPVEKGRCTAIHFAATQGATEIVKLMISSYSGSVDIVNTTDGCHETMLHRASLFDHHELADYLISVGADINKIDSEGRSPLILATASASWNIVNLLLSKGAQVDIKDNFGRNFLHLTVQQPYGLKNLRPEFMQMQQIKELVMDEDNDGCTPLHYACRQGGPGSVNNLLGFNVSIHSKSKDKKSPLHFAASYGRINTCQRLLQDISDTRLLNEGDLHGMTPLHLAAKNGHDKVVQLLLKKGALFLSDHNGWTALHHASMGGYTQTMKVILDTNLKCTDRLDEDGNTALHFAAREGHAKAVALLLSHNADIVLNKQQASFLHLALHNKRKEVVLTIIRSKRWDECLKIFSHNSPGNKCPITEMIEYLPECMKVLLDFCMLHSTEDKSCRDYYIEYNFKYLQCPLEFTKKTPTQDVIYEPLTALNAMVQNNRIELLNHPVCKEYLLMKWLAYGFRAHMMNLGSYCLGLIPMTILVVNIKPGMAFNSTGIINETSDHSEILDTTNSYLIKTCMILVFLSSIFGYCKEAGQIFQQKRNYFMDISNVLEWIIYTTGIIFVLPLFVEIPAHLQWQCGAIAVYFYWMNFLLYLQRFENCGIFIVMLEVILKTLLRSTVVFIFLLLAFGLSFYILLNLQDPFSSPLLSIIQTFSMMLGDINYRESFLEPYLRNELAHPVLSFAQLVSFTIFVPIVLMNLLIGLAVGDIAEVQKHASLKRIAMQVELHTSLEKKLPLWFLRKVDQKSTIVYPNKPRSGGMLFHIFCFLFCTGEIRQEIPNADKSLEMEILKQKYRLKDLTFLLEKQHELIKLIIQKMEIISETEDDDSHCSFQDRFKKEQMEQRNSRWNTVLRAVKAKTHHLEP
Put plainly: High throughput Ca2+ fluorescence (Fluo4) assay, AITC stimulation. To be noted: Table 2; read-out: hTRPA1 Fluor IC50. Format: cell-based. The gist of the method:
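Tetracycline-induced HEK293/TREx cells loaded with 1 μM Fluo4/AM for 60 min at room temperature. Compound added for 2 min after a 4-frame baseline, then AITC; fluorescence followed ~3 min.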
For orientation: IC50 means the concentration needed to halve the response being measured. Take `CC(C)N(C(=O)Cn1cnc2c1c(=O)n(C)c(=O)n2C)c1ccccc1` [Compound 336]: the IC50 is greater than 10 µM.
Same read-out and setting: the same measure for `Cn1c(=O)c2c(ncn2CC(=O)NCc2ccccc2CN2CCOCC2)n(C)c1=O` [Compound 337]: greater than 10 µM.
`Cn1c(=O)c2c(ncn2CC(=O)Nc2ccccc2C(=O)NC2CC2)n(C)c1=O` [Compound 338]: the IC50 is greater than 10 µM.
The same measure, in the same setting: with `Cc1nn(Cc2ccccc2)c(C)c1CNC(=O)Cn1cnc2c1c(=O)n(C)c(=O)n2C` [Compound 339] the figure was greater than 10 µM; with `Cn1c(=O)c2c(ncn2CC(=O)Nc2ccnn2C2CCCC2)n(C)c1=O` [Compound 340], greater than 10 µM; with `Cn1c(=O)c2c(ncn2CC(=O)Nc2ncc(Cl)cc2Cl)n(C)c1=O` [Compound 341], greater than 10 µM.
The same measure, in the same setting: with `CN(Cc1ccccc1N1CCOCC1)C(=O)Cn1cnc2c1c(=O)n(C)c(=O)n2C` [Compound 342] the figure was greater than 10 µM; with `Cn1c(=O)c2c(ncn2CC(=O)NC(c2ccc(F)cc2)c2cccs2)n(C)c1=O` (stereo not shown) [Compound 343], greater than 10 µM.
On the same count and under the same terms, with `CC(C)C(NC(=O)Cn1cnc2c1c(=O)n(C)c(=O)n2C)c1ccc2c(c1)OCCCO2` (stereo not shown) [Compound 345] the figure was greater than 10 µM.
In the case of `COC(=O)c1ccc(C)c(NC(=O)Cn2cnc3c2c(=O)n(C)c(=O)n3C)c1` [Compound 346], the IC50 is no less than 30 µM.
On the same count and under the same terms, with `CC1CCCC(NC(=O)Cn2cnc3c2c(=O)n(C)c(=O)n3C)C1C` (stereo not shown) [Compound 349] the figure was greater than 10 µM.
On the same count and under the same terms, the same measure for `Cn1c(=O)c2c(ncn2CC(=O)Nc2ccccc2SCc2ccccc2)n(C)c1=O` [Compound 351]: greater than 10 µM; for `Cn1c(=O)c2c(ncn2CC(=O)NC(c2ccccc2)c2cccs2)n(C)c1=O` (stereo not shown) [Compound 352]: greater than 10 µM.
Consider `Cc1nc(-c2ccc(CCNC(=O)Cn3cnc4c3c(=O)n(C)c(=O)n4C)cc2)cs1` [Compound 353], for which the IC50 was no more than 5 µM.
The same measure, in the same setting: the same measure for `Cn1c(=O)c2c(ncn2CC(=O)Nc2ccc(N3CCCCCC3)cc2)n(C)c1=O` [Compound 354]: no more than 5 µM; for `Cc1cccc(NC(=O)c2ccccc2NC(=O)Cn2cnc3c2c(=O)n(C)c(=O)n3C)c1` [Compound 355]: no less than 20 µM.
Same read-out and setting: the same measure for `Cc1c(C#N)c(NC(=O)Cn2cnc3c2c(=O)n(C)c(=O)n3C)n(Cc2ccccc2)c1C` [Compound 356]: greater than 10 µM.
On the same count and under the same terms, the same measure for `Cn1c(=O)c2c(ncn2CC(=O)NC(CN2CCOCC2)c2ccccc2)n(C)c1=O` (stereo not shown) [Compound 357]: greater than 10 µM; for `Cc1ccccc1NC(=O)Cn1cnc2c1c(=O)n(C)c(=O)n2C` [Compound 358]: greater than 10 µM.
With `CCc1cccc(C)c1NC(=O)Cn1cnc2c1c(=O)n(C)c(=O)n2C` [Compound 359], the IC50 was greater than 10 µM.
The same measure, in the same setting: the same measure for `CC(=O)c1ccc(NC(=O)Cn2cnc3c2c(=O)n(C)c(=O)n3C)cc1` [Compound 360]: no more than 10 µM.
Same read-out and setting: with `COc1ccccc1NC(=O)Cn1cnc2c1c(=O)n(C)c(=O)n2C` [Compound 361] the figure was greater than 10 µM.
The same measure, in the same setting: with `CCOC(=O)c1ccccc1NC(=O)Cn1cnc2c1c(=O)n(C)c(=O)n2C` [Compound 362] the figure was greater than 10 µM.
As for `COC(=O)c1ccc(NC(=O)Cn2cnc3c2c(=O)n(C)c(=O)n3C)cc1` [Compound 363], the IC50 was no more than 10 µM.
On the same count and under the same terms, the same measure for `COc1ccc(CNC(=O)Cn2cnc3c2c(=O)n(C)c(=O)n3C)cc1` [Compound 364]: greater than 10 µM.
The same measure, in the same setting: the same measure for `COC(=O)c1ccccc1NC(=O)Cn1cnc2c1c(=O)n(C)c(=O)n2C` [Compound 365]: greater than 10 µM.
On the same count and under the same terms, the same measure for `CCOC(=O)c1ccc(NC(=O)Cn2cnc3c2c(=O)n(C)c(=O)n3C)cc1` [Compound 366]: no more than 5 µM.
`Cn1c(=O)c2c(ncn2CC(=O)Nc2cccnc2)n(C)c1=O` [Compound 367]: the IC50 was greater than 10 µM.
Same read-out and setting: the same measure for `Cn1c(=O)c2c(ncn2CC(=O)NCc2ccco2)n(C)c1=O` [Compound 368]: greater than 10 µM.
Same read-out and setting: with `Cn1c(=O)c2c(ncn2CC(=O)Nc2ccccn2)n(C)c1=O` [Compound 369] the figure was greater than 10 µM; with `Cc1ccnc(NC(=O)Cn2cnc3c2c(=O)n(C)c(=O)n3C)c1` [Compound 370], greater than 10 µM.
On the same count and under the same terms, the same measure for `Cc1ccc(NC(=O)Cn2cnc3c2c(=O)n(C)c(=O)n3C)nc1` [Compound 372]: no less than 30 µM.
For the molecule `COc1ccc(C)cc1NC(=O)Cn1cnc2c1c(=O)n(C)c(=O)n2C` [Compound 373], the IC50 was greater than 10 µM.
Still for that read-out and setting: with `Cc1ccc(Cl)cc1NC(=O)Cn1cnc2c1c(=O)n(C)c(=O)n2C` [Compound 374] the figure was no less than 20 µM.
`Cc1cc(C)c(NC(=O)Cn2cnc3c2c(=O)n(C)c(=O)n3C)c(C)c1` [Compound 375]: the IC50 was greater than 10 µM.
Take `CCCC(C)NC(=O)Cn1cnc2c1c(=O)n(C)c(=O)n2C` (stereo not shown) [Compound 376]: the IC50 is greater than 10 µM.
As to `Cn1c(=O)c2c(ncn2CC(=O)NCc2ccc3c(c2)OCO3)n(C)c1=O` [Compound 377], the IC50 is greater than 10 µM.
`COC(=O)C(CC(C)C)NC(=O)Cn1cnc2c1c(=O)n(C)c(=O)n2C` (stereo not shown) [Compound 378]: the IC50 is greater than 10 µM.
On the same count and under the same terms, with `CC(CCc1ccccc1)NC(=O)Cn1cnc2c1c(=O)n(C)c(=O)n2C` (stereo not shown) [Compound 379] the figure was greater than 10 µM.
Same read-out and setting: with `CC(=O)c1cccc(NC(=O)Cn2cnc3c2c(=O)n(C)c(=O)n3C)c1` [Compound 380] the figure was greater than 10 µM.
Same read-out and setting: the same measure for `CCc1sc(NC(=O)Cn2cnc3c2c(=O)n(C)c(=O)n3C)nc1-c1ccccc1` [Compound 381]: no more than 10 µM; for `CCC(C)(C)NC(=O)Cn1cnc2c1c(=O)n(C)c(=O)n2C` [Compound 382]: greater than 10 µM.
Consider `CCc1cccc(CC)c1NC(=O)Cn1cnc2c1c(=O)n(C)c(=O)n2C` [Compound 383], for which the IC50 is greater than 10 µM.
On the same count and under the same terms, the same measure for `Cn1c(=O)c2c(ncn2CC(=O)Nc2ccccc2Sc2ccccc2)n(C)c1=O` [Compound 384]: no more than 10 µM; for `CC(C)NC(=O)c1ccccc1NC(=O)Cn1cnc2c1c(=O)n(C)c(=O)n2C` [Compound 385]: greater than 10 µM.
As for `Cn1c(=O)c2c(ncn2CC(=O)Nc2cc(F)cc(F)c2)n(C)c1=O` [Compound 386], the half-inhibitory concentration (IC50) is no more than 5 µM.

In a further assay the target is T1, hTRPA1. Put plainly: TRPA1 patch clamp (perforated patch, AITC-activated current). In kind it is cell-based. To be noted: Table 1; read-out: hTRPA1 Patch IC50. From the text:
Patch clamp experiments permit the detection of currents through the TRPA1 channel in the cell line described above. To permit recording of current at a stable level and prevent the “rundown” observed by other labs, it is necessary to use the perforated patch technique, which prevents dialysis of the cytoplasm with the pipette solution. In normal whole-cell patch clamp recordings, a glass electrode is brought into contact with a single cell and a high-resistance (gigaohm) seal is established with the cell membrane. The membrane is then ruptured to achieve the whole-cell configuration, permitting control of the voltage of the cell membrane and measurement of currents flowing across the membrane using the amplifier attached to the electrode and resulting in the replacement of cytoplasm with the pipette solution. In contrast, in the perforated patch mode, an antibiotic, amphotericin, is present in the pipette solution and diffuses into contact with the cell after the seal is achieved, over the course of several minutes. The amphotericin forms ion-permeable pores in the membrane under the pipette, permitting passage of some ions but maintaining most native cytosolic components. A perfusion system permits control of the extracellular solution, including the addition of blockers and activators of the current. The current can be activated by addition of 5 μM AITC to the solution. […] In some cases, cells were grown in low density overnight on glass coverslips. Patch clamp recordings were made in the whole-cell mode with a holding potential of −40 mV. Every 5 seconds, a voltage ramp was applied from −120 to +100 mV, 400 ms in duration. Currents elicited were quantified at −80 mV and +80 mV. […] The external solution consisted of 150 mM NaCl, 4.5 mM KCl, 3 mM MgCl2, 10 mM HEPES, […], 1 mM EGTA, pH 7.4. Upon addition of AITC, TRPA1 current was induced only in TRPA1-expressing cells and not in parental HEK293 TREx cells. Removal of the AITC stimulus causes most of the current to go away. Potential blockers were tested for ability to block both inward and outward currents in the continued presence of AITC.
Consider `COC(=O)C1=C(c2ccccc2)NC(=S)NC1c1ccc(OC)c(OC)c1` (stereo not shown), for which the IC50 is no more than 10000 nM.

The assay is the same for the next values; noted with them: Table 2; inward current; read-out: hTRPA1 Patch Inwd IC50.
For the molecule `Cn1c(=O)c2c(ncn2CC(=O)NCc2ccccc2Cl)n(C)c1=O` [Compound 236], the IC50 was greater than 10000 nM.
Take `Cn1c(=O)c2c(ncn2CC(=O)Nc2ccc3c(c2)CCC3)n(C)c1=O` [Compound 240]: the IC50 was no more than 5000 nM.
Still for that read-out and setting: with `COc1ccc(Cl)cc1NC(=O)Cn1cnc2c1c(=O)n(C)c(=O)n2C` [Compound 285] the figure was no more than 5000 nM; with `CC(C)c1ccc(NC(=O)C(C)(C)n2cnc3c2c(=O)n(C)c(=O)n3C)cc1` [Compound 387, 2-(1,3-dimethyl-2,6-dioxo-1,2,3,6-tetrahydropurin-7-yl)-N-(4-isopropylphenyl)-2-methylpropanamide], greater than 10000 nM; with `CC(C)c1ccc(NC(=O)Cn2cnc3c2c(=O)[nH]c(=O)n3C)cc1` [Compound 388, N-(4-isopropylphenyl)-2-(3-methyl-2,6-dioxo-1,2,3,6-tetrahydropurin-7-yl)acetamide], greater than 10000 nM.
On the same count and under the same terms, with `Cn1c(=O)c2c(ncn2CC(=O)NCCc2ccc(S(N)(=O)=O)cc2)n(C)c1=O` [Compound 389] the figure was greater than 10000 nM; with `CC(C)c1ccc(NC(=O)Cn2cnc3[nH]c(=O)n(C)c(=O)c32)cc1` [Compound 391, N-(4-isopropylphenyl)-2-(1-methyl-2,6-dioxo-1,2,3,6-tetrahydropurin-7-yl)acetamide], no more than 10000 nM.
On the same count and under the same terms, with `CC(C)c1ccc(N(C)C(=O)Cn2cnc3[nH]c(=O)n(C)c(=O)c32)cc1` [Compound 392, N-(4-isopropylphenyl)-N-methyl-2-(1-methyl-2,6-dioxo-1,2,3,6-tetrahydropurin-7-yl)acetamide] the figure was greater than 10000 nM; with `CC(C)c1ccc(N(C)C(=O)Cn2cnc3c2c(=O)n(C)c(=O)n3C)cc1` [Compound 393, 2-(1,3-dimethyl-2,6-dioxo-1,2,3,6-tetrahydropurin-7-yl)-N-(4-isopropylphenyl)-N-methylacetamide], greater than 10000 nM.
For the molecule `Cn1c(=O)[nH]c(=O)c2c1ncn2CC(=O)Nc1ccc(C2CCCC2)cc1` [Compound 394, N-(4-cyclopentylphenyl)-2-(3-methyl-2,6-dioxo-1,2,3,6-tetrahydropurin-7-yl)acetamide], the IC50 was no more than 5000 nM.

Staying with this assay, now noted: hTRPA1 Patch Inwd IC50 (nM), Table 2; inward current.
As to `COc1ccc(CCNC(=O)Cn2cnc3c2c(=O)n(C)c(=O)n3C)cc1OC` [Compound 390], the IC50 was no more than 10000 nM.
